In patent publication US20130116241A1, “NOVEL INHIBITOR COMPOUNDS OF PHOSPHODIESTERASE TYPE 10A” (AbbVie Inc., priority 2011, published 2013) one finds IC50 data, which are given here for 16 molecules.

As a reminder, the IC50 is the point on the concentration scale where inhibition reaches its midpoint.

Structures can show the parent of a compound that is named as a salt.

The target of this test is human PDE10A (UniProt Q9Y233). Kind of test: Measurement of PDE activity (recombinant enzyme, HTRF cAMP kit). The conditions noted are these: Table 1, substrate 20 nM for PDE10, 60 minutes at 29 C, read-out: IC50. The test is classed as biochemical. The essentials: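 Recombinant human PDE10A (10–250 pM range across PDEs) with 20 nM cAMP substrate in 20 mM Tris-HCl pH 7.5, 10 mM MgCl2, 0.1% BSA, compound pre-mixed with enzyme. Ran 60 min at 29 °C. Remaining cAMP read by HTRF, converted to % of uninhibited activity, and IC50 fitted.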
human PDE10A, sequence (Q9Y233 290-1055 limits assumed): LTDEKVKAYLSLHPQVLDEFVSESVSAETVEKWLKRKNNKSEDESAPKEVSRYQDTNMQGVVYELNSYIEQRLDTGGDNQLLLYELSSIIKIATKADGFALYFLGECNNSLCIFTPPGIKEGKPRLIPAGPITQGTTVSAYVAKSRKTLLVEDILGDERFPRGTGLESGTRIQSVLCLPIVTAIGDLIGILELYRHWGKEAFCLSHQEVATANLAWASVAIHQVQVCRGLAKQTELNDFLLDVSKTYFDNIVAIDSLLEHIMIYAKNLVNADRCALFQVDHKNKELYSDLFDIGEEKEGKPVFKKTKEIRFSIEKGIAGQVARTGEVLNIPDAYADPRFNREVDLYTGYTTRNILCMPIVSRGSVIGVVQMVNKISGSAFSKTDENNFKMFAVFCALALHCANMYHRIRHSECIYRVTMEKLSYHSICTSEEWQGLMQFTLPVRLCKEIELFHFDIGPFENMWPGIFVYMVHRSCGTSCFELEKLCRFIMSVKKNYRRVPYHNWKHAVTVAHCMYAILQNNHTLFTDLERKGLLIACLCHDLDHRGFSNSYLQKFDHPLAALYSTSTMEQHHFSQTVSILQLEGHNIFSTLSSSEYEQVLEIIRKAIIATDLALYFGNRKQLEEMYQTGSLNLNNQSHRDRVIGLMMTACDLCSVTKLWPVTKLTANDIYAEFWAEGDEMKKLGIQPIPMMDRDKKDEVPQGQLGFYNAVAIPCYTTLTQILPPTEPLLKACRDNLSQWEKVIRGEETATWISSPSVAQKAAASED
A general note: In TR-FRET formats the signal depends on donor and acceptor labels being close together.
With `Cc1ccc(-c2csc3cnn(CCc4ccc5ccccc5n4)c(=O)c23)c(F)c1` [Example 90, 3-(2-fluoro-4-methylphenyl)-5-[2-(quinolin-2-yl)ethyl]thieno[2,3-d]pyridazin-4(5H)-one], the IC50 was in the range of 200 to 500 nM. As for `O=c1c2c(N3CCCCC3)cccc2cnn1CCc1cn2ccccc2n1` [Example 181, 2-[2-(Imidazo[1,2-a]pyridin-2-yl)ethyl]-8-(piperidin-1-yl)phthalazin-1(2H)-one hydrochloride], the figure is 200 to 500 nM. As for `O=c1c2c(-c3cccc(F)c3)cccc2cnn1CCc1ccc2ccccc2n1` [Example 115, 8-(3-Fluorophenyl)-2-[2-(quinolin-2-yl)ethyl]phthalazin-1(2H)-one], the IC50 is less than 100 nM. Turning to `CC(C)Cn1cc(-c2csc3cnn(CCc4ccc5ccccc5n4)c(=O)c23)cn1` [Example 57, 3-[1-(2-methylpropyl)-1H-pyrazol-4-yl]-5-[2-(quinolin-2-yl)ethyl]thieno[2,3-d]pyridazin-4(5H)-one], the IC50 was in the range of 200 to 500 nM. As for `O=c1c2c(C#Cc3ccncc3)csc2cnn1CCc1ccc2ccccc2n1` [compound 320, hydrochloride], the figure is 200 to 500 nM. Take `Cc1cc(F)ccc1-c1csc2cnn(CCc3ccc4ccccc4n3)c(=O)c12` [Example 62, 3-(4-fluoro-2-methylphenyl)-5-[2-(quinolin-2-yl)ethyl]thieno[2,3-d]pyridazin-4(5H)-one]: the IC50 lay within 200 to 500 nM. In the case of `Cn1nccc1-c1cccc2cnn(CCc3ccc4ccccc4n3)c(=O)c12` [Example 161, 8-(1-Methyl-1H-pyrazol-5-yl)-2-[2-(quinolin-2-yl)ethyl]phthalazin-1(2H)-one hydrochloride], the IC50 was less than 100 nM. For `O=c1c2c(N3CCOCC3)csc2ccn1CCc1ccc2ccccc2n1` [Example 211, 3-(Morpholin-4-yl)-5-[2-(quinolin-2-yl)ethyl]thieno[3,2-c]pyridin-4(5H)-one hydrochloride], the IC50 was in the range of 200 to 500 nM. For the molecule `O=c1c2c(N3CCC4(COC4)C3)cccc2ccn1C1CC1c1ccc2ccccc2n1` (single isomer, unassigned) [Example 258, anti (−) 2-(2-(quinolin-2-yl)cyclopropyl)-8-(2-oxa-6-azaspiro[3.4]octan-6-yl)isoquinolin-1(2H)-one], the IC50 is less than 100 nM.

Turning to `COc1ccc(-c2csc3cnn(CCc4ccc5ccccc5n4)c(=O)c23)cc1OC` [Example 71, 3-(3,4-dimethoxyphenyl)-5-[2-(quinolin-2-yl)ethyl]thieno[2,3-d]pyridazin-4(5H)-one], the IC50 was 200 to 500 nM.

For the molecule `O=c1c2c(C3CCOCC3)cccc2cnn1CCc1cn2ccccc2n1` [compound 355, 2-[2-(imidazo[1,2-a]pyridin-2-yl)ethyl]-8-(tetrahydro-2H-pyran-4-yl)phthalazin-1(2H)-one], the half-maximal inhibitory concentration (IC50) is less than 100 nM. The value for `O=c1c2c(-c3ccncc3)csc2ccn1/C=C/c1nc2ccccc2s1` [compound 415, 5-[(E)-2-(1,3-benzothiazol-2-yl)ethenyl]-3-(pyridin-4-yl)thieno[3,2-c]pyridin-4(5H)-one] was less than 100 nM.

As to `O=c1c2c(N3CCC[C@H](O)C3)cccc2cnn1CCc1cn2ccccc2n1` [compound 333], the IC50 is less than 100 nM. In the case of `O=c1c2c(N3CCC(C(F)F)C3)cccc2ccn1C1CC1c1ccc2ccccc2n1` (stereo not drawn) [Example 262, anti 8-(3-(difluoromethyl)pyrrolidin-1-yl)-2-(2-(quinolin-2-yl)cyclopropyl)isoquinolin-1(2H)-one, trifluoroacetate], the half-maximal inhibitory concentration (IC50) is 100 to 200 nM.

`O=c1c2c(-c3ccncc3)csc2cnn1CCc1ccc2ccc(F)cc2n1` [compound 322, 5-[2-(7-fluoroquinolin-2-yl)ethyl]-3-(pyridin-4-yl)thieno[2,3-d]pyridazin-4(5H)-one]: the IC50 lay in the range of 200 to 500 nM. `N#Cc1ccc(-c2csc3cnn(CCc4ccc5ccccc5n4)c(=O)c23)cc1` [Example 10, 4-{4-oxo-5-[2-(quinolin-2-yl)ethyl]-4,5-dihydrothieno[2,3-d]pyridazin-3-yl}benzonitrile]: the IC50 was less than 100 nM.
